Test results taken from patent US11970474B2, “Substituted benzodiazoles and use thereof in therapy” (THOMAS HELLEDAYS STIFTELSE FÖR MEDICINSK FORSKNING, priority 2018, dated 2024).
Where two headings read alike, the source gives them in different places.

How the values were obtained:
OGG1 = OGG1 (Homo sapiens (Human), UniProt O15527); test: In vitro OGG1 activity assay; type: biochemical; conditions: 800 pM OGG1 enzyme, 2 nM human APEX1, 10 nM 8-oxoA:C substrate
Outline: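 Read-out is fluorescein fluorescence, with compounds in DMSO added first, then enzyme and substrate. OGG1 excises its substrate base from a quenched fluorophore-labelled duplex, and surplus APEX1 cuts the resulting apurinic site. The duplex then melts and fluorescence rises in proportion to glycosylase activity.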

MLE12 cells = test: Cell viability assay in MLE12 cells (resazurin); type: cell-based, mouse; conditions: TNF-α 20 ng/ml, resazurin added after 24 hours culture
Outline: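 MLE12 cells (7500 cells/well) were seeded onto 11-point duplicate compound dose-responses, with TNF-α (final 20 ng/ml) added after 1 hour at 37° C. After 24 hours, resazurin was added for 6 hours and resorufin fluorescence read (ex544 nm/em595 nm). EC50 values were calculated by curve fitting.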

CCL2 = test: Mouse CCL2 assay in MLE12 cells; type: cell-based; conditions: MLE12 cells, TNF-α 20 ng/ml, supernatant after 30 hours, HTRF, read-out: CCL2 (EC50)
Outline: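 CCL2 in supernatants was quantified by two-antibody HTRF FRET, read at 620 and 665 nm after overnight RT incubation, with IC50 derived from delta ratios. Cells were SV40-transformed mouse MLE12, treated with duplicate 6-point compound series for 1 h before 30 h TNF-α (20 ng/ml final) stimulation.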

Sequence of OGG1 (O15527 whole entry): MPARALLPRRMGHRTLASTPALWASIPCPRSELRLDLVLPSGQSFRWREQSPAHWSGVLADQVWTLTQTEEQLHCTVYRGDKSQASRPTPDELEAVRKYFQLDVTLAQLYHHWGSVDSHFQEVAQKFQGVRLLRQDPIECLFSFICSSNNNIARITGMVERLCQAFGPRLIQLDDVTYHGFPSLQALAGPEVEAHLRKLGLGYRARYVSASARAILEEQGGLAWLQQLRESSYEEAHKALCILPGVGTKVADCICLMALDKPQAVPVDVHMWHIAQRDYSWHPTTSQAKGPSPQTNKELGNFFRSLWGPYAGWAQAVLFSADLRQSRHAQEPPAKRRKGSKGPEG

SMILES | IC50 (OGG1) [nM] | EC50 (CCL2; Mus musculus, MLE12, 30 h) [µM] | EC50 (CCL2) [µM] | IC50 (MLE12 cells; Mus musculus, MLE12, 24 h) [µM] | IC50 (MLE12 cells) [µM]
Cn1ncc2cc(NC(=O)[C@H]3CC[C@@H](n4c(=O)[nH]c5c(Br)cccc54)CC3)ccc21 [Example 171, (Cis)-4-(4-bromo-2-oxo-2,3-dihydro-1H-1,3-benzodiazol-1-yl)-N-(1-methyl-1H-indazol-5-yl)cyclohexane-1-carboxamide] | 211 | 41.1 | – | 17.5 | –
COc1ccc(NC(=O)[C@H]2CC[C@@H](n3c(=O)[nH]c4c(Br)cccc43)CC2)cn1 [Example 183, Cis-4-(4-bromo-2-oxo-2,3-dihydro-1H-1,3-benzodiazol-1-yl)-N-(6-methoxypyridin-3-yl)cyclohexane-1-carboxamide] | 174 | 36.2 | – | 17 | –
O=c1[nH]c2c(Br)cccc2n1[C@H]1CC[C@@H](C(=O)Nc2ccc(Cl)nc2)CC1 [Example 184, Cis-4-(4-bromo-2-oxo-2,3-dihydro-1H-1,3-benzodiazol-1-yl)-N-(6-chloropyridin-3-yl)cyclohexane-1-carboxamide] | 325 | 16.8 | – | 7.86 | –
Cc1cc(NC(=O)[C@H]2CC[C@@H](n3c(=O)[nH]c4c(Br)cccc43)CC2)cnc1Cl [Example 187, Cis-4-(4-bromo-2-oxo-2,3-dihydro-1H-1,3-benzodiazol-1-yl)-N-(6-chloro-5-methylpyridin-3-yl)cyclohexane-1-carboxamide] | 338 | 13 | – | 7.9 | –
O=c1[nH]c2c(Br)cccc2n1[C@H]1CC[C@@H](C(=O)Nc2ccc(O)cc2)CC1 [Example 191, Cis-4-(4-bromo-2-oxo-2,3-dihydro-1H-1,3-benzodiazol-1-yl)-N-(4-hydroxyphenyl)cyclohexane-1-carboxamide] | 55.7 | 33.5 | – | 29.8 | –
Cc1n[nH]c2ccc(NC(=O)[C@H]3CC[C@@H](n4c(=O)[nH]c5c(Br)cccc54)CC3)cc12 [Example 199, Cis-4-(4-bromo-2-oxo-2,3-dihydro-1H-1,3-benzodiazol-1-yl)-N-(3-methyl-1H-indazol-5-yl)cyclohexane-1-carboxamide] | 494 | 16.5 | – | 7.51 | –
COc1ncc(NC(=O)[C@H]2CC[C@@H](n3c(=O)[nH]c4c(Br)cccc43)CC2)cc1Cl [Example 202, Cis-4-(4-bromo-2-oxo-2,3-dihydro-1H-1,3-benzodiazol-1-yl)-N-(5-chloro-6-methoxypyridin-3-yl)cyclohexane-1-carboxamide] | 52.8 | 11.6 | – | 7.97 | –
O=c1[nH]c2c(Br)cccc2n1[C@H]1CC[C@@H](C(=O)Nc2ccc3ncccc3c2)CC1 [Example 204, Cis-4-(4-bromo-2-oxo-2,3-dihydro-1H-1,3-benzodiazol-1-yl)-N-(quinolin-6-yl)cyclohexane-1-carboxamide] | 65.6 | 12.9 | – | 7.93 | –
COc1cccc2c1[nH]c(=O)n2[C@H]1CC[C@@H](C(=O)Nc2ccc3cc[nH]c3c2)CC1 [Example 209, Cis-N-(1H-indol-6-yl)-4-(4-methoxy-2-oxo-2,3-dihydro-1H-1,3-benzodiazol-1-yl)cyclohexane-1-carboxamide] | 402 | 34.9 | – | 21.5 | –
COc1cc(NC(=O)[C@H]2CC[C@@H](n3c(=O)[nH]c4ccccc43)CC2)ccc1C [Example 226, Cis-N-(3-methoxy-4-methylphenyl)-4-(2-oxo-2,3-dihydro-1H-1,3-benzodiazol-1-yl)cyclohexane-1-carboxamide] | 77.9 | 34.1 | – | 17.1 | –
COc1ccc(CSc2cccc3c2[nH]c(=O)n3[C@H]2CC[C@@H](C(=O)Nc3ccc(C)c(OC)c3)CC2)cc1 [Example 230, Cis-N-(3-methoxy-4-methylphenyl)-4-(4-{[(4-methoxyphenyl)methyl]sulfanyl}-2-oxo-2,3-dihydro-1H-1,3-benzodiazol-1-yl)cyclohexane-1-carboxamide] | 606 | 5.84 | – | 2.58 | –
COc1cc(NC(=O)[C@H]2CC[C@@H](n3c(=O)[nH]c4c(S)cccc43)CC2)ccc1C [Example 237, Cis-N-(3-methoxy-4-methylphenyl)-4-(2-oxo-4-sulfanyl-2,3-dihydro-1H-1,3-benzodiazol-1-yl)cyclohexane-1-carboxamide] | 67.1 | 31.7 | – | 4.54 | –

The next molecules have a lower IC50 (OGG1) than those just listed; values first:

IC50 (OGG1) [nM] | EC50 (CCL2; Mus musculus, MLE12, 30 h) [µM] | EC50 (CCL2) [µM] | SMILES | IC50 (MLE12 cells; Mus musculus, MLE12, 24 h) [µM] | IC50 (MLE12 cells) [µM]
44 | 32.6 | – | COc1ncc(NC(=O)[C@H]2CC[C@@H](n3c(=O)[nH]c4c(Br)cccc43)CC2)cc1C [Example 168, (Cis)-4-(4-bromo-2-oxo-2,3-dihydro-1H-1,3-benzodiazol-1-yl)-N-(6-methoxy-5-methylpyridin-3-yl)cyclohexane-1-carboxamide] | 14.4 | –
38.9 | 30.2 | – | O=c1[nH]c2c(Br)cccc2n1[C@H]1CC[C@@H](C(=O)Nc2ccc3c(c2)OCCO3)CC1 [Example 197, Cis-4-(4-bromo-2-oxo-2,3-dihydro-1H-1,3-benzodiazol-1-yl)-N-(2,3-dihydro-1,4-benzodioxin-6-yl)cyclohexane-1-carboxamide] | 19.5 | –
35.1 | 18.2 | – | O=c1[nH]c2c(Br)cccc2n1[C@H]1CC[C@@H](C(=O)Nc2ccc(O)c(Cl)c2)CC1 [Example 201, Cis-4-(4-bromo-2-oxo-2,3-dihydro-1H-1,3-benzodiazol-1-yl)-N-(3-chloro-4-hydroxyphenyl)cyclohexane-1-carboxamide] | 10.4 | –
34.2 | 32.9 | – | COc1ccc(NC(=O)[C@H]2CC[C@@H](n3c(=O)[nH]c4c(Br)cccc43)CC2)cc1OC [Example 192, Cis-4-(4-bromo-2-oxo-2,3-dihydro-1H-1,3-benzodiazol-1-yl)-N-(3,4-dimethoxyphenyl)cyclohexane-1-carboxamide] | 15.7 | –
33.5 | 3.13 | – | COc1cc(NC(=O)[C@H]2CC[C@@H](n3c(=O)[nH]c4c(-c5cccc(OCCN(C)C)c5)cccc43)CC2)ccc1C [Example 225, Cis-4-(4-{3-[2-(dimethylamino)ethoxy]phenyl}-2-oxo-2,3-dihydro-1H-1,3-benzodiazol-1-yl)-N-(3-methoxy-4-methylphenyl)cyclohexane-1-carboxamide] | 1.71 | –
29.8 | 12.2 | 6.93 | COc1cc(NC(=O)[C@H]2CC[C@@H](n3c(=O)[nH]c4c(N(C)CCN(C)C)cccc43)CC2)ccc1C [Example 229, Cis-4-(4-{[2-(dimethylamino)ethyl](methyl)amino}-2-oxo-2,3-dihydro-1H-1,3-benzodiazol-1-yl)-N-(3-methoxy-4-methylphenyl)cyclohexane-1-carboxamide] | 9.19 | 6.67
27.2 | 15.2 | – | Cc1ccc(NC(=O)[C@H]2CC[C@@H](n3c(=O)[nH]c4c(Br)cccc43)CC2)cc1O [Example 221, Cis-4-(4-bromo-2-oxo-2,3-dihydro-1H-1,3-benzodiazol-1-yl)-N-(3-hydroxy-4-methylphenyl)cyclohexane-1-carboxamide] | 7.84 | –
17.9 | 27.5 | – | COc1cc(NC(=O)[C@H]2CC[C@@H](n3c(=O)[nH]c4c(O)cccc43)CC2)ccc1C [Example 227, Cis-4-(4-hydroxy-2-oxo-2,3-dihydro-1H-1,3-benzodiazol-1-yl)-N-(3-methoxy-4-methylphenyl)cyclohexane-1-carboxamide] | 16.5 | –
17.2 | 33.5 | – | Cc1cc(NC(=O)[C@H]2CC[C@@H](n3c(=O)[nH]c4c(Br)cccc43)CC2)ccc1O [Example 194, Cis-4-(4-bromo-2-oxo-2,3-dihydro-1H-1,3-benzodiazol-1-yl)-N-(4-hydroxy-3-methylphenyl)cyclohexane-1-carboxamide] | 15.6 | –
15.4 | 33.7 | – | COc1ccc(NC(=O)[C@H]2CC[C@@H](n3c(=O)[nH]c4c(OC)cccc43)CC2)cc1C [Example 206, Cis-4-(4-methoxy-2-oxo-2,3-dihydro-1H-1,3-benzodiazol-1-yl)-N-(4-methoxy-3-methylphenyl)cyclohexane-1-carboxamide] | 26.7 | –
9.43 | 34.2 | – | COc1ccc(NC(=O)[C@H]2CC[C@@H](n3c(=O)[nH]c4c(F)cccc43)CC2)cc1C [Example 212, Cis-4-(4-fluoro-2-oxo-2,3-dihydro-1H-1,3-benzodiazol-1-yl)-N-(4-methoxy-3-methylphenyl)cyclohexane-1-carboxamide] | 16.9 | –
0.15 | 20.8 | 11.2 | COc1cc(NC(=O)[C@H]2CC[C@@H](n3c(=O)[nH]c4c(C(=O)NCCN(C)C)cccc43)CC2)ccc1C [Example 228, N-[2-(Dimethylamino)ethyl]-2-oxo-1-[cis-4-[(3-methoxy-4-methylphenyl)carbamoyl]cyclohexyl]-2,3-dihydro-1H-1,3-benzodiazole-4-carboxamide] | 16.4 | 10.5
